Assay results published in the supplement of paper PMC10307832.

Tests used:
Test in all cases: relative viability (nuclei count vs DMSO), 5 days (fraction); higher = more cells survive
Seliciclib + Luminespib = compound: CC[C@H](CO)Nc1nc(NCc2ccccc2)c2ncn(C(C)C)c2n1 [Seliciclib] + CCNC(=O)c1noc(-c2cc(C(C)C)c(O)cc2O)c1-c1ccc(CN2CCOCC2)cc1 [Luminespib] (partner 0.01 µM)
Summary of the method: (§1)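 One day after seeding in 1536-well plates, lung cancer cell lines were dosed by pin tool. Dosing was either single-drug or a fixed anchor-drug dose plus five library-drug doses (not always all listed) in √10 steps. After 5 days, nuclei were stained in one fix-and-stain step and counted on 4× images, and relative viability is the nuclei count of treated wells over that of vehicle wells, given as the median of duplicate plates.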

Seliciclib + Lapatinib = compound: CC[C@H](CO)Nc1nc(NCc2ccccc2)c2ncn(C(C)C)c2n1 [Seliciclib] + CS(=O)(=O)CCNCc1ccc(-c2ccc3ncnc(Nc4ccc(OCc5cccc(F)c5)c(Cl)c4)c3c2)o1 [Lapatinib] (partner 2 µM)
Summary of the method: as §1

Seliciclib + OSI-027 = compound: CC[C@H](CO)Nc1nc(NCc2ccccc2)c2ncn(C(C)C)c2n1 [Seliciclib] + COc1cccc2cc(-c3nc([C@H]4CC[C@H](C(=O)O)CC4)n4ncnc(N)c34)[nH]c12 [OSI-027] (partner 0.5 µM)
Summary of the method: as §1

Seliciclib + Linsitinib = compound: CC[C@H](CO)Nc1nc(NCc2ccccc2)c2ncn(C(C)C)c2n1 [Seliciclib] + C[C@]1(O)C[C@@H](c2nc(-c3ccc4ccc(-c5ccccc5)nc4c3)c3c(N)nccn32)C1 [Linsitinib] (partner 1 µM)
Summary of the method: as §1

Row | Cell Line | relative viability (Seliciclib + Luminespib; first compound 0.08 µM) | relative viability (Seliciclib + Luminespib; first compound 0.253 µM) | relative viability (Seliciclib + Luminespib; first compound 0.8 µM) | relative viability (Seliciclib + Luminespib; first compound 2.53 µM) | relative viability (Seliciclib + Luminespib; first compound 8 µM) | relative viability (Seliciclib + Lapatinib; first compound 0.08 µM) | relative viability (Seliciclib + Lapatinib; first compound 0.253 µM) | relative viability (Seliciclib + Lapatinib; first compound 0.8 µM) | relative viability (Seliciclib + Lapatinib; first compound 2.53 µM) | relative viability (Seliciclib + Lapatinib; first compound 8 µM) | relative viability (Seliciclib + OSI-027; first compound 0.08 µM) | relative viability (Seliciclib + OSI-027; first compound 0.253 µM) | relative viability (Seliciclib + OSI-027; first compound 0.8 µM) | relative viability (Seliciclib + OSI-027; first compound 2.53 µM) | relative viability (Seliciclib + OSI-027; first compound 8 µM) | relative viability (Seliciclib + Linsitinib; first compound 0.08 µM) | relative viability (Seliciclib + Linsitinib; first compound 0.253 µM) | relative viability (Seliciclib + Linsitinib; first compound 0.8 µM) | relative viability (Seliciclib + Linsitinib; first compound 2.53 µM) | relative viability (Seliciclib + Linsitinib; first compound 8 µM)
1 | A-427 | 0.905 | 0.744 | 0.926 | 0.873 | 0.902 | 1.03 | 1.08 | 1.13 | 1.02 | 1.01 | 0.419 | 0.615 | 0.442 | 0.331 | 0.401 | 1.08 | 1.11 | 1.2 | 1.15 | 1.13
2 | LCLC-97TM1 | 0.843 | 0.81 | 0.449 | 0.684 | 0.469 | 1.12 | 1.71 | 1.36 |  | 0.364 | 0.442 | 0.424 | 0.714 | 0.108 | 0.182 | 0.162 | 0.181 | 0.205 |  | 0.18
3 | HCC-15 | 0.275 | 0.386 | 0.304 | 0.33 | 0.309 | 0.865 | 0.963 | 0.758 | 0.792 | 0.652 | 0.691 | 0.757 | 0.584 | 0.427 | 0.442 | 0.931 | 0.986 | 0.861 | 0.941 | 0.667
4 | NCI-H647 | 0.111 | 0.206 | 0.127 | 0.128 | 0.163 | 1.25 | 1.11 | 1.07 | 1.28 | 1.01 | 0.616 |  | 0.652 | 0.552 | 0.534 | 1.22 | 1.12 | 1.11 | 1.19 | 0.718
5 | SW 1573 | 0.727 | 0.431 | 0.219 | 0.197 | 0.243 | 1.09 | 1.06 | 1.02 | 1.1 | 0.869 | 0.606 | 0.491 | 0.728 | 0.598 | 0.466 | 0.768 | 0.792 | 0.904 | 0.743 | 0.668
6 | NCI-H1651 | 0.864 | 0.958 | 0.876 | 0.594 | 0.564 | 0.807 | 0.875 | 0.883 | 0.864 | 0.702 | 0.654 | 0.815 | 0.651 | 0.542 | 0.543 | 0.878 | 0.879 | 0.91 | 0.924 | 0.839
7 | NCI-H1792 | 0.43 | 0.464 | 0.364 |  | 0.35 | 0.947 | 0.889 | 0.855 | 0.776 | 0.846 | 0.67 | 0.769 | 0.73 |  | 0.64 | 0.459 | 0.568 | 0.521 | 0.678 | 0.477
8 | NCI-H2023 | 0.681 | 0.832 | 0.703 | 0.569 | 0.421 | 0.932 | 0.991 | 0.732 | 0.406 | 0.451 | 0.418 | 0.304 | 0.396 | 0.188 | 0.323 | 0.642 | 0.574 | 0.633 | 0.746 | 0.572
9 | COR-L 105 | 1.07 | 0.428 | 0.817 | 0.859 | 0.532 | 0.367 | 0.347 | 0.416 | 0.311 | 0.279 | 0.722 | 0.622 | 0.754 | 0.56 | 0.646 | 1.04 | 0.748 | 0.943 | 0.91 | 0.926
10 | NCI-H1734 | 0.186 | 0.199 | 0.181 | 0.159 | 0.222 | 1.12 | 0.974 | 1.08 | 0.955 | 0.945 | 0.513 | 0.413 | 0.565 | 0.435 | 0.452 | 0.951 | 0.819 | 0.824 | 1.02 | 0.775
11 | NCI-H3122 | 0.0896 |  | 0.1 | 0.0781 | 0.11 | 0.938 | 1.08 | 0.91 | 1.04 | 0.949 | 0.979 | 0.53 | 0.769 | 0.744 | 0.778 | 0.966 | 1.03 | 0.987 | 1.05 | 0.94
12 | CAL-12T | 0.351 | 0.411 | 0.363 | 0.388 | 0.313 | 0.619 | 0.793 | 0.551 | 0.67 | 0.276 | 0.746 | 0.504 | 0.763 | 0.321 | 0.357 | 0.87 | 0.977 | 0.744 | 0.742 | 0.673
13 | NCI-H2085 | 0.508 | 0.462 | 0.414 | 0.398 | 0.372 | 0.739 | 0.793 | 0.667 | 0.635 | 0.497 | 0.803 | 0.679 | 0.59 | 0.685 | 0.577 | 0.808 | 0.805 | 0.928 | 0.856 | 0.763
